In brackets after ≈: the same amount, converted by molar mass. Where two headings read alike, the source gives them in different places.
Experiments:
[1] = system: A. baumannii; assay: microbe, parasite or virus in culture; conditions: Acinetobacter baumannii, 100%
Summary of the method: (§1)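 Values come from CLSI-guided (M07, M100) broth microdilution in CAMHB. Endpoint: lowest concentration halting growth, judged by naked eye or by OD600 plateau.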

[2] = system: K. pneumoniae ATCC 700603; assay: microbe, parasite or virus in culture; conditions: Klebsiella pneumoniae
Summary of the method: as §1

With C[C@@H](O)[C@H]1C(=O)N2C(C(=O)O)=C(S[C@@H]3CN[C@H](C(=O)N(C)C)C3)[C@H](C)[C@H]12 [meropenem, reference compound] the MIC ([1]; read-out: MIC 100%, ROB08708, Study ROC006) was 64 µg/mL (≈ 167 µM), the MIC ([1]; read-out: MIC 100%, ROB08708, Study ROC007) was 16 µg/mL (≈ 41.7 µM) and the MIC ([1]; read-out: MIC 100%, ROB08708, Study ROC008) was 16 µg/mL (≈ 41.7 µM). For the same compound, the MIC ([1]; read-out: MIC 100%, ROB08708, Study ROC009) was 32 µg/mL (≈ 83.4 µM), the MIC ([1]; read-out: MIC 100%, ROB08708, Study ROC010) was 16 µg/mL (≈ 41.7 µM) and the MIC ([1]; read-out: MIC 100%, ROB08708, Study ROC012) was 16 µg/mL (≈ 41.7 µM). The MIC ([1]; read-out: MIC 100%, ROB08708, Study ROC013) was 32 µg/mL (≈ 83.4 µM), the MIC ([1]; read-out: MIC 100%, ROB08709, Study LGC277937) was 32 µg/mL (≈ 83.4 µM) and the MIC ([1]; read-out: MIC 100%, ROB08709, Study LGC279800) was 32 µg/mL (≈ 83.4 µM). The MIC ([1]; read-out: MIC 100%, ROB08709, Study LGC281440) was 32 µg/mL (≈ 83.4 µM), the MIC ([1]; read-out: MIC 100%, ROB08709, Study LGC282160) was 16 µg/mL (≈ 41.7 µM) and the MIC ([1]; read-out: MIC 100%, ROB08709, Study LGC282623) was 32 µg/mL (≈ 83.4 µM). For the same compound, the MIC ([1]; read-out: MIC 100%, ROB08709, Study LGC283932) was 32 µg/mL (≈ 83.4 µM), the MIC ([1]; read-out: MIC 100%, ROB08709, Study LGC284200) was 32 µg/mL (≈ 83.4 µM) and the MIC ([1]; read-out: MIC 100%, ROB08709, Study LGC284879) was 32 µg/mL (≈ 83.4 µM). For the same compound, the MIC ([1]; read-out: MIC 100%, ROB08709, Study LGC285582) was 32 µg/mL (≈ 83.4 µM), the MIC ([1]; read-out: MIC 100%, ROB08709, Study LGC286210) was 32 µg/mL (≈ 83.4 µM) and the MIC ([1]; read-out: MIC 100%, ROB08709, Study LGC293598) was 32 µg/mL (≈ 83.4 µM). It also gave an MIC ([1]; read-out: MIC 100%, ROB08709, Study LGC294355) of 32 µg/mL (≈ 83.4 µM), an MIC ([1]; read-out: MIC 100%, ROB08709, Study LGC295147) of 16 µg/mL (≈ 41.7 µM) and an MIC ([1]; read-out: MIC 100%, ROB08709, Study LGC296813) of 16 µg/mL (≈ 41.7 µM). The MIC ([1]; read-out: MIC 100%, ROB08709, Study LGC299544) was 32 µg/mL (≈ 83.4 µM), the MIC ([1]; read-out: MIC 100%, ROB08709, Study LGC301026) was 16 µg/mL (≈ 41.7 µM) and the MIC ([1]; read-out: MIC 100%, ROB08709, Study LGC308175) was 32 µg/mL (≈ 83.4 µM). It also gave an MIC ([1]; read-out: MIC 100%, ROB08709, Study ROC004) of 64 µg/mL (≈ 167 µM), an MIC ([1]; read-out: MIC 100%, ROB08709, Study ROC005) of 16 µg/mL (≈ 41.7 µM) and an MIC ([1]; read-out: MIC 100%, ROB08709, Study ROC006) of 64 µg/mL (≈ 167 µM). It also gave an MIC ([1]; read-out: MIC 100%, ROB08709, Study ROC007) of 16 µg/mL (≈ 41.7 µM), an MIC ([1]; read-out: MIC 100%, ROB08709, Study ROC008) of 16 µg/mL (≈ 41.7 µM) and an MIC ([1]; read-out: MIC 100%, ROB08709, Study ROC009) of 16 µg/mL (≈ 41.7 µM). For the same compound, the MIC ([1]; read-out: MIC 100%, ROB08709, Study ROC010) was 16 µg/mL (≈ 41.7 µM), the MIC ([1]; read-out: MIC 100%, ROB08709, Study ROC012) was 16 µg/mL (≈ 41.7 µM) and the MIC ([1]; read-out: MIC 100%, ROB08709, Study ROC013) was 32 µg/mL (≈ 83.4 µM). It also gave an MIC ([1]; read-out: MIC 100%, ROB08710, Study LGC277937) of 64 µg/mL (≈ 167 µM), an MIC ([1]; read-out: MIC 100%, ROB08710, Study LGC279800) of 64 µg/mL (≈ 167 µM) and an MIC ([1]; read-out: MIC 100%, ROB08710, Study LGC281440) of 32 µg/mL (≈ 83.4 µM). The MIC ([1]; read-out: MIC 100%, ROB08710, Study LGC282160) was 64 µg/mL (≈ 167 µM), the MIC ([1]; read-out: MIC 100%, ROB08710, Study LGC282623) was 32 µg/mL (≈ 83.4 µM) and the MIC ([1]; read-out: MIC 100%, ROB08710, Study LGC283932) was 32 µg/mL (≈ 83.4 µM). It also gave an MIC ([1]; read-out: MIC 100%, ROB08710, Study LGC284200) of 32 µg/mL (≈ 83.4 µM), an MIC ([1]; read-out: MIC 100%, ROB08710, Study LGC284879) of 32 µg/mL (≈ 83.4 µM) and an MIC ([1]; read-out: MIC 100%, ROB08710, Study LGC285582) of 32 µg/mL (≈ 83.4 µM). The MIC ([1]; read-out: MIC 100%, ROB08710, Study LGC286210) was 32 µg/mL (≈ 83.4 µM), the MIC ([1]; read-out: MIC 100%, ROB08710, Study LGC293598) was 32 µg/mL (≈ 83.4 µM) and the MIC ([1]; read-out: MIC 100%, ROB08710, Study LGC294355) was 32 µg/mL (≈ 83.4 µM). The MIC ([1]; read-out: MIC 100%, ROB08710, Study LGC295147) was 64 µg/mL (≈ 167 µM), the MIC ([1]; read-out: MIC 100%, ROB08710, Study LGC296813) was 32 µg/mL (≈ 83.4 µM) and the MIC ([1]; read-out: MIC 100%, ROB08710, Study LGC299544) was 64 µg/mL (≈ 167 µM). It also gave an MIC ([1]; read-out: MIC 100%, ROB08710, Study LGC301026) of 32 µg/mL (≈ 83.4 µM), an MIC ([1]; read-out: MIC 100%, ROB08710, Study LGC308175) of 32 µg/mL (≈ 83.4 µM) and an MIC ([1]; read-out: MIC 100%, ROB08710, Study ROC004) of 32 µg/mL (≈ 83.4 µM). The MIC ([1]; read-out: MIC 100%, ROB08710, Study ROC005) was 32 µg/mL (≈ 83.4 µM), the MIC ([1]; read-out: MIC 100%, ROB08710, Study ROC006) was 64 µg/mL (≈ 167 µM) and the MIC ([1]; read-out: MIC 100%, ROB08710, Study ROC007) was 64 µg/mL (≈ 167 µM). It also gave an MIC ([1]; read-out: MIC 100%, ROB08710, Study ROC008) of 32 µg/mL (≈ 83.4 µM), an MIC ([1]; read-out: MIC 100%, ROB08710, Study ROC009) of 64 µg/mL (≈ 167 µM) and an MIC ([1]; read-out: MIC 100%, ROB08710, Study ROC010) of 32 µg/mL (≈ 83.4 µM). It also gave an MIC ([1]; read-out: MIC 100%, ROB08710, Study ROC012) of 32 µg/mL (≈ 83.4 µM), an MIC ([1]; read-out: MIC 100%, ROB08710, Study ROC013) of 32 µg/mL (≈ 83.4 µM) and an MIC ([2]; ATCC700603, CAMHB, mode of at least three replicates (RO7036668 one replicate)) of at most 0.06 µg/mL. For the same compound, the MIC ([2]; ATCC700603, read-out: MIC 100%, Study LGC277937, 100%) was at most 0.06 µg/mL, the MIC ([2]; ATCC700603, read-out: MIC 100%, Study LGC279800, 100%) was at most 0.06 µg/mL and the MIC ([2]; ATCC700603, read-out: MIC 100%, Study LGC281440, 100%) was at most 0.06 µg/mL. The MIC ([2]; ATCC700603, read-out: MIC 100%, Study LGC282160, 100%) was at most 0.06 µg/mL, the MIC ([2]; ATCC700603, read-out: MIC 100%, Study LGC282623, 100%) was at most 0.06 µg/mL and the MIC ([2]; ATCC700603, read-out: MIC 100%, Study LGC283932, 100%) was at most 0.06 µg/mL. The MIC ([2]; ATCC700603, read-out: MIC 100%, Study LGC284200, 100%) was at most 0.06 µg/mL, the MIC ([2]; ATCC700603, read-out: MIC 100%, Study LGC284879, 100%) was at most 0.06 µg/mL and the MIC ([2]; ATCC700603, read-out: MIC 100%, Study LGC285582, 100%) was at most 0.06 µg/mL. It also gave an MIC ([2]; ATCC700603, read-out: MIC 100%, Study LGC286210, 100%) of at most 0.06 µg/mL, an MIC ([2]; ATCC700603, read-out: MIC 100%, Study LGC293598, 100%) of at most 0.06 µg/mL and an MIC ([2]; ATCC700603, read-out: MIC 100%, Study LGC294355, 100%) of at most 0.06 µg/mL. The MIC ([2]; ATCC700603, read-out: MIC 100%, Study LGC295147, 100%) was at most 0.06 µg/mL, the MIC ([2]; ATCC700603, read-out: MIC 100%, Study LGC296813, 100%) was at most 0.06 µg/mL and the MIC ([2]; ATCC700603, read-out: MIC 100%, Study LGC299544, 100%) was at most 0.06 µg/mL. The MIC ([2]; ATCC700603, read-out: MIC 100%, Study LGC301026, 100%) was at most 0.06 µg/mL, the MIC ([2]; ATCC700603, read-out: MIC 100%, Study LGC308175, 100%) was at most 0.06 µg/mL and the MIC ([2]; ATCC700603, read-out: MIC 100%, Study ROC003, 100%) was at most 0.06 µg/mL. For the same compound, the MIC ([2]; ATCC700603, read-out: MIC 100%, Study ROC004, 100%) was at most 0.06 µg/mL, the MIC ([2]; ATCC700603, read-out: MIC 100%, Study ROC005, 100%) was at most 0.06 µg/mL and the MIC ([2]; ATCC700603, read-out: MIC 100%, Study ROC006, 100%) was at most 0.06 µg/mL. The MIC ([2]; ATCC700603, read-out: MIC 100%, Study ROC007, 100%) was at most 0.06 µg/mL, the MIC ([2]; ATCC700603, read-out: MIC 100%, Study ROC008, 100%) was 0.12 µg/mL (≈ 0.313 µM) and the MIC ([2]; ATCC700603, read-out: MIC 100%, Study ROC009, 100%) was 0.06 µg/mL (≈ 0.156 µM). For the same compound, the MIC ([2]; ATCC700603, read-out: MIC 100%, Study ROC010, 100%) was at most 0.06 µg/mL, the MIC ([2]; ATCC700603, read-out: MIC 100%, Study ROC012, 100%) was at most 0.06 µg/mL and the MIC ([2]; ATCC700603, read-out: MIC 100%, Study ROC013, 100%) was at most 0.06 µg/mL.

From publication PMC10794144, “A novel antibiotic class targeting the lipopolysaccharide transporter” (Nature, 2024)
